Results as given in ChEMBL document CHEMBL1201862, “PubChem BioAssay data set” (2004).
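Method: 48-hour compound exposure of cells in 96-well plates, five concentrations, linear interpolation of endpoints. Abbreviation: GI50, concentration required for 50% inhibition of growth.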 Activity calls are given as the source filed them. Rule as the data show it: active = GI50 up to about 1.1 µM and inactive = higher.

Columns and labels:
Experiment in all cases: DTP human tumour cell line panel, 48 h
786-0 = tested on: 786-0
A549 = tested on: A549
ACHN = tested on: ACHN
BT-549 = tested on: BT-549
CAKI-1 = tested on: CAKI-1
CCRF-CEM = tested on: CCRF-CEM
COLO 205 = tested on: COLO 205
DU-145 = tested on: DU-145
EKVX = tested on: EKVX
HCC 2998 = tested on: HCC 2998
HCT-116 = tested on: HCT-116
HCT-15 = tested on: HCT-15
HL-60 = tested on: HL-60
HOP-62 = tested on: HOP-62
HOP-92 = tested on: HOP-92
HT-29 = tested on: HT-29
Hs-578T = tested on: Hs-578T
IGROV-1 = tested on: IGROV-1
K562 = tested on: K562
KM12 = tested on: KM12
LOX IMVI = tested on: LOX IMVI
M14 = tested on: M14
MCF7 = tested on: MCF7
MDA-MB-231 = tested on: MDA-MB-231
MDA-MB-435 = tested on: MDA-MB-435
MOLT-4 = tested on: MOLT-4
NCI-H226 = tested on: NCI-H226
NCI-H460 = tested on: NCI-H460
OVCAR-4 = tested on: OVCAR-4
OVCAR-5 = tested on: OVCAR-5
PC-3 = tested on: PC-3
RPMI-8226 = tested on: RPMI-8226
RXF 393 = tested on: RXF 393
SF-268 = tested on: SF-268
SF-295 = tested on: SF-295
SF-539 = tested on: SF-539
SK-MEL-28 = tested on: SK-MEL-28
SK-MEL-2 = tested on: SK-MEL-2
SK-MEL-5 = tested on: SK-MEL-5
SK-OV-3 = tested on: SK-OV-3
SN12C = tested on: SN12C
SNB-19 = tested on: SNB-19
SNB-75 = tested on: SNB-75
SR = tested on: SR
SW-620 = tested on: SW-620
T47D = tested on: T47D
TK-10 = tested on: TK-10
U-251 = tested on: U-251
UACC-257 = tested on: UACC-257
UACC-62 = tested on: UACC-62
UO-31 = tested on: UO-31
Malme-3M = tested on: Malme-3M
NCI-H23 = tested on: NCI-H23
NCI-H522 = tested on: NCI-H522
NCI/ADR-RES = tested on: NCI/ADR-RES
OVCAR-3 = tested on: OVCAR-3
OVCAR-8 = tested on: OVCAR-8
A498 = tested on: A498

COc1ccc(-c2nc(-c3cc4c(ccc5ccccc54)oc3=O)cs2)cc1
GI50 (786-0): 33.2 µM (inactive)
GI50 (A549): > 100 µM (inactive)
GI50 (ACHN): > 100 µM (inactive)
GI50 (BT-549): > 100 µM (inactive)
GI50 (CAKI-1): > 100 µM (inactive)
GI50 (CCRF-CEM): > 100 µM (inactive)
GI50 (COLO 205): > 100 µM (inactive)
GI50 (DU-145): > 100 µM (inactive)
GI50 (EKVX): > 100 µM (inactive)
GI50 (HCC 2998): > 100 µM (inactive)
GI50 (HCT-116): 59.8 µM (inactive)
GI50 (HCT-15): > 100 µM
GI50 (HL-60): > 100 µM (inactive)
GI50 (HOP-62): 73.3 µM (inactive)
GI50 (HOP-92): > 100 µM (inactive)
GI50 (HT-29): > 100 µM (inactive)
GI50 (Hs-578T): > 100 µM (inactive)
GI50 (IGROV-1): > 100 µM (inactive)
GI50 (K562): > 100 µM (inactive)
GI50 (KM12): > 100 µM (inactive)
GI50 (LOX IMVI): > 100 µM (inactive)
GI50 (M14): > 100 µM (inactive)
GI50 (MCF7): > 100 µM (inactive)
GI50 (MDA-MB-231): 73.6 µM (inactive)
GI50 (MDA-MB-435): > 100 µM (inactive)
GI50 (MOLT-4): > 100 µM (inactive)
GI50 (NCI-H226): 31 µM (inactive)
GI50 (NCI-H460): > 100 µM (inactive)
GI50 (OVCAR-4): 43.7 µM (inactive)
GI50 (OVCAR-5): > 100 µM (inactive)
GI50 (PC-3): > 100 µM (inactive)
GI50 (RPMI-8226): > 100 µM (inactive)
GI50 (RXF 393): > 100 µM (inactive)
GI50 (SF-268): > 100 µM (inactive)
GI50 (SF-295): > 100 µM (inactive)
GI50 (SF-539): > 100 µM (inactive)
GI50 (SK-MEL-28): > 100 µM (inactive)
GI50 (SK-MEL-2): > 100 µM (inactive)
GI50 (SK-MEL-5): > 100 µM (inactive)
GI50 (SK-OV-3): > 100 µM (inactive)
GI50 (SN12C): > 100 µM (inactive)
GI50 (SNB-19): > 100 µM (inactive)
GI50 (SNB-75): 66.5 µM (inactive)
GI50 (SR): > 100 µM (inactive)
GI50 (SW-620): > 100 µM (inactive)
GI50 (T47D): > 100 µM (inactive)
GI50 (TK-10): > 100 µM (inactive)
GI50 (U-251): > 10 µM (inactive)
GI50 (UACC-257): > 100 µM (inactive)
GI50 (UACC-62): > 100 µM (inactive)
GI50 (UO-31): > 100 µM (inactive)

CC1=C[P+](c2ccccc2)(c2ccccc2)c2ccccc2O1
GI50 (786-0): 25.2 µM (inactive)
GI50 (A549): 13.6 µM (inactive)
GI50 (ACHN): 30.6 µM (inactive)
GI50 (BT-549): 10 µM (inactive)
GI50 (CAKI-1): 23.5 µM (inactive)
GI50 (COLO 205): 1.29 µM (inactive)
GI50 (DU-145): 19.2 µM (inactive)
GI50 (EKVX): 16.7 µM (inactive)
GI50 (HCT-116): 3.71 µM (inactive)
GI50 (HCT-15): > 100 µM
GI50 (HL-60): 2.06 µM (inactive)
GI50 (HOP-62): 11.6 µM (inactive)
GI50 (HOP-92): 3.73 µM (inactive)
GI50 (HT-29): 2.91 µM (inactive)
GI50 (Hs-578T): 2.53 µM (inactive)
GI50 (IGROV-1): 5.28 µM (inactive)
GI50 (K562): 0.524 µM (active)
GI50 (KM12): 2.07 µM (inactive)
GI50 (LOX IMVI): 4.45 µM (inactive)
GI50 (M14): 3.39 µM (inactive)
GI50 (MCF7): 5.05 µM (inactive)
GI50 (MDA-MB-231): 3.96 µM (inactive)
GI50 (MDA-MB-435): 2.47 µM (inactive)
GI50 (MOLT-4): 2.15 µM (inactive)
GI50 (Malme-3M): 4.71 µM (inactive)
GI50 (NCI-H226): 15.2 µM (inactive)
GI50 (NCI-H23): 4.07 µM (inactive)
GI50 (NCI-H460): 20.5 µM (inactive)
GI50 (NCI-H522): 3.25 µM (inactive)
GI50 (NCI/ADR-RES): > 100 µM (inactive)
GI50 (OVCAR-3): 1.14 µM (inactive)
GI50 (OVCAR-4): 3.42 µM (inactive)
GI50 (OVCAR-5): 17.4 µM (inactive)
GI50 (OVCAR-8): 5.14 µM (inactive)
GI50 (PC-3): 3.32 µM (inactive)
GI50 (RXF 393): > 100 µM (inactive)
GI50 (SF-268): 16.6 µM (inactive)
GI50 (SF-295): 13 µM (inactive)
GI50 (SF-539): 7.89 µM (inactive)
GI50 (SK-MEL-28): 7.01 µM (inactive)
GI50 (SK-MEL-2): 4.17 µM (inactive)
GI50 (SK-MEL-5): 2.81 µM (inactive)
GI50 (SK-OV-3): 25 µM (inactive)
GI50 (SN12C): 1.32 µM (inactive)
GI50 (SNB-19): 7.11 µM (inactive)
GI50 (SNB-75): 11.4 µM (inactive)
GI50 (SR): 1.56 µM (inactive)
GI50 (SW-620): 5.86 µM (inactive)
GI50 (T47D): 0.597 µM (active)
GI50 (TK-10): 14 µM (inactive)
GI50 (U-251): 3.65 µM (inactive)
GI50 (UACC-257): 2.79 µM (inactive)
GI50 (UACC-62): 8 µM (inactive)
GI50 (UO-31): > 100 µM (inactive)

O=C1CNc2cc(N3CCOCC3)ccc2N1
GI50 (786-0): > 100 µM (inactive)
GI50 (A498): 60.7 µM (inactive)
GI50 (A549): > 100 µM (inactive)
GI50 (ACHN): > 100 µM (inactive)
GI50 (BT-549): > 100 µM (inactive)
GI50 (CAKI-1): > 100 µM (inactive)
GI50 (CCRF-CEM): > 100 µM (inactive)
GI50 (COLO 205): > 100 µM (inactive)
GI50 (DU-145): > 100 µM (inactive)
GI50 (EKVX): 2.91 µM (inactive)
GI50 (HCC 2998): > 100 µM (inactive)
GI50 (HCT-116): > 100 µM (inactive)
GI50 (HCT-15): > 100 µM
GI50 (HL-60): > 100 µM (inactive)
GI50 (HOP-62): > 100 µM (inactive)
GI50 (HOP-92): > 100 µM (inactive)
GI50 (HT-29): > 100 µM (inactive)
GI50 (Hs-578T): 57.3 µM (inactive)
GI50 (IGROV-1): > 100 µM (inactive)
GI50 (K562): > 100 µM (inactive)
GI50 (KM12): > 100 µM (inactive)
GI50 (LOX IMVI): > 100 µM (inactive)
GI50 (M14): > 100 µM (inactive)
GI50 (MDA-MB-231): > 100 µM (inactive)
GI50 (MDA-MB-435): > 100 µM (inactive)
GI50 (MOLT-4): > 100 µM (inactive)
GI50 (Malme-3M): > 100 µM (inactive)
GI50 (NCI-H226): > 100 µM (inactive)
GI50 (NCI-H23): > 100 µM (inactive)
GI50 (NCI-H460): > 100 µM (inactive)
GI50 (NCI-H522): > 100 µM (inactive)
GI50 (NCI/ADR-RES): > 100 µM (inactive)
GI50 (OVCAR-3): > 100 µM (inactive)
GI50 (OVCAR-4): > 100 µM (inactive)
GI50 (OVCAR-5): > 100 µM (inactive)
GI50 (OVCAR-8): > 100 µM (inactive)
GI50 (PC-3): > 100 µM (inactive)
GI50 (RPMI-8226): > 100 µM (inactive)
GI50 (RXF 393): > 100 µM (inactive)
GI50 (SF-268): > 100 µM (inactive)
GI50 (SF-295): > 100 µM (inactive)
GI50 (SK-MEL-28): > 100 µM (inactive)
GI50 (SK-MEL-2): > 100 µM (inactive)
GI50 (SK-MEL-5): > 100 µM (inactive)
GI50 (SK-OV-3): > 100 µM (inactive)
GI50 (SNB-19): > 100 µM (inactive)
GI50 (SNB-75): > 100 µM (inactive)
GI50 (SR): > 100 µM (inactive)
GI50 (SW-620): > 100 µM (inactive)
GI50 (T47D): > 100 µM (inactive)
GI50 (TK-10): > 100 µM (inactive)
GI50 (U-251): > 100 µM (inactive)
GI50 (UACC-257): > 100 µM (inactive)
GI50 (UACC-62): 64.9 µM (inactive)
GI50 (UO-31): > 100 µM (inactive)
